Measurements as given in patent US6555663B1, “Prodrugs for selective drug delivery” (priority 1986, dated 2003).

Key:
[1] = test system: RSFFV (Raucher Spleen Focus Forming Virus); experiment: Treatment of C3H mice infected with Raucher Spleen Focus Forming Virus: spleen weight; assay type: in vivo
Procedure: The effectiveness of MTL J-1 was tested in C3H mice against the virus RSFFV (Raucher Spleen Focus Forming Virus) which is a retrovirus and is a valid animal model for HIV infection by application to the above identified mice according to the following procedure:
(§1) Three groups of two month old C3H mice, each comprising four animals were provided as one control and two test groups, wherein, the three-groups (I-III) were subjected to an infectious dose of RSFFV on day one. The first group (I) served as control and received no treatment. Group II and III were treated with […] total body weight concentration of the drug Foscarnet and the test compound MTL J-1, respectively which was administered each day for days 5 through 9. The animals were sacrificed on day 14, where upon the spleens where removed and weighed.
(§2) The tests were redone with a second control group (IA) having no infection of RSFFV and receiving no treatment with any drug, wherein groups I and IA comprise four mice each, and groups II and III comprise five mice each, providing the results summarized below: […]

[2] = Body weight of treated RSFFV-infected C3H mice (toxicity); assay type: in vivo
Procedure: as §1, §2

[3] = RSFFV-infected C3H mice, 10 μM total body weight concentration, days 5 through 9
[4] = first test (Table 1), RSFFV on day one, 10 μM total body weight concentration each day for days 5 through 9, sacrificed day 14
[5] = repeat test (Table 2) with a second, uninfected control group IA, same treatment

| Substance | Effectiveness, as demonstrated by the absence of splenomegaly [1, 3] | Spleen weight Normalized [1, 4] | Spleen weight Normalized [1, 5] [grams] | Toxicity, as demonstrated by an absence of weight loss [2, 3] | Ending Weight ([2]; mouse, in vivo) [grams] | Weight change ([2]; mouse, in vivo) | Ending Weight [2, 4] [grams] | Weight change [2, 4] [grams] | Ending Weight [2, 5] [grams] | Weight change [2, 5] |
| --- | --- | --- | --- | --- | --- | --- | --- | --- | --- | --- |
| 5-phosphonoformate-1,5-di-(p-N-2-(N-(4-aminobutyl)-N-ethylisoluminol)-N-ethylaminophenyl)-1,5-bis-(p-N,N-dimethylaniline)-1,3-pentadiene [MTL J-1] | highly effective | .068 grams | 0.049 | nontoxic | 19.2 | +1.5 grams |  |  |  |  |
| phosphonoformate [Foscarnet] |  | .079 grams | 0.061 |  |  |  | 21.2 | 0.15 | 19.6 | +1.6 grams |
